# Experiments:
# D(1B) dopamine receptor = D(1B) dopamine receptor (Homo sapiens, UniProt P21918); assay: Inhibition of D5 dopamine receptor
# [1] = target: Muscarinic acetylcholine receptor M1 (Homo sapiens) (UniProt P11229); assay: Inhibition of M1 muscarinic receptor at 10 uM
# [2] = target: Muscarinic acetylcholine receptor M2 (Homo sapiens) (UniProt P08172); assay: Inhibition of M2 muscarinic receptor at 10 uM
# [3] = target: Muscarinic acetylcholine receptor M4 (Homo sapiens) (UniProt P08173); assay: Inhibition of M4 muscarinic receptor at 10 uM
# [4] = target: Muscarinic acetylcholine receptor M2 (Homo sapiens, UniProt P08172); assay: Inhibition of M2 muscarinic receptor
# [5] = target: Alpha-2C adrenergic receptor (Homo sapiens) (UniProt P18825); assay: Inhibition of alpha2C adrenergic receptor at 10 uM
# [6] = target: Alpha-1B adrenergic receptor (Homo sapiens, UniProt P35368); assay: Inhibition of alpha1B adrenergic receptor
# [7] = target: Alpha-2B adrenergic receptor (Homo sapiens, UniProt P18089); assay: Inhibition of alpha2B adrenergic receptor
# D(3) dopamine receptor = D(3) dopamine receptor (Homo sapiens, UniProt P35462); assay: Inhibition of D3 dopamine receptor
# [8] = target: Sodium-dependent dopamine transporter (Homo sapiens, UniProt Q01959); assay: Inhibition of DAT
# [9] = target: Muscarinic acetylcholine receptor M3 (Homo sapiens, UniProt P20309); assay: Inhibition of M3 muscarinic receptor
# Chain of Muscarinic acetylcholine receptor M3 (P20309 whole entry): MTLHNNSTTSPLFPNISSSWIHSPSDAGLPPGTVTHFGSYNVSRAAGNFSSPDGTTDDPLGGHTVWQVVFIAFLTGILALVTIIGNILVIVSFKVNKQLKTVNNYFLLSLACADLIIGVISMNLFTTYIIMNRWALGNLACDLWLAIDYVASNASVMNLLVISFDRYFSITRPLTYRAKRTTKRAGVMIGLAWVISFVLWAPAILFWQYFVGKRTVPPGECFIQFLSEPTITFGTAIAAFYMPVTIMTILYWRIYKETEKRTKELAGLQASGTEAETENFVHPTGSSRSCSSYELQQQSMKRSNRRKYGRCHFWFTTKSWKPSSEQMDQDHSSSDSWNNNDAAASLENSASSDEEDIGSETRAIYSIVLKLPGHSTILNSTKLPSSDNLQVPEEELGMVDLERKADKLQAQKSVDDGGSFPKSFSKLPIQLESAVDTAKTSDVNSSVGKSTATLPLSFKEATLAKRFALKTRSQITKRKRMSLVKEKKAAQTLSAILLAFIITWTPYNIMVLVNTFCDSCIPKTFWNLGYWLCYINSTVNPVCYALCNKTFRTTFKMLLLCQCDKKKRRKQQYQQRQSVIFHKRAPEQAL
# Chain of Muscarinic acetylcholine receptor M2 (P08172 whole entry): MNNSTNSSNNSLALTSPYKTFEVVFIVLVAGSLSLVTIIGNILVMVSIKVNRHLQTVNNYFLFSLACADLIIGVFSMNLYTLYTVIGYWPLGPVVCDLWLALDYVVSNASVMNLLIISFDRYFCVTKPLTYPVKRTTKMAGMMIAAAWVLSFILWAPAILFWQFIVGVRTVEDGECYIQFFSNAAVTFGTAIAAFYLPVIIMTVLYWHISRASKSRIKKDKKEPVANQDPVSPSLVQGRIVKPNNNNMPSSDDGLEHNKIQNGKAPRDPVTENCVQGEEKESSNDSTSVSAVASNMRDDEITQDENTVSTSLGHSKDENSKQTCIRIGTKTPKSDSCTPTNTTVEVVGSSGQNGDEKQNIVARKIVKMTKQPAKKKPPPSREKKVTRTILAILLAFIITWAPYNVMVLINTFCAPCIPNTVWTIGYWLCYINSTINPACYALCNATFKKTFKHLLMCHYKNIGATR
# Chain of Alpha-1B adrenergic receptor (P35368 whole entry): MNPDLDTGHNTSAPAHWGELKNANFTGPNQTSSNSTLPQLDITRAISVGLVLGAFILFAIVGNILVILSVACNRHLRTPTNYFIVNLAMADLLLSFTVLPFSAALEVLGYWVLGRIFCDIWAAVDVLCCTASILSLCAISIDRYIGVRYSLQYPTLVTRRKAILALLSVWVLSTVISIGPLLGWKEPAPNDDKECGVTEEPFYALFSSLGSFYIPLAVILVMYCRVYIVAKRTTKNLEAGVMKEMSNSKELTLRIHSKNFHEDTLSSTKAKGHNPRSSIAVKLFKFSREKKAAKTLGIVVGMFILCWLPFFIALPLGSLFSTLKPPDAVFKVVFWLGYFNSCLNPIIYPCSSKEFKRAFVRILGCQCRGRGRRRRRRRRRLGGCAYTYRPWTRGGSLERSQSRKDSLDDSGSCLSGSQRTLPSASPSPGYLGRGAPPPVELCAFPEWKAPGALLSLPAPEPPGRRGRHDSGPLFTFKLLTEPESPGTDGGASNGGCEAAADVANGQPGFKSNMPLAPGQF
# Chain of Muscarinic acetylcholine receptor M4 (Homo sapiens) (P08173 whole entry): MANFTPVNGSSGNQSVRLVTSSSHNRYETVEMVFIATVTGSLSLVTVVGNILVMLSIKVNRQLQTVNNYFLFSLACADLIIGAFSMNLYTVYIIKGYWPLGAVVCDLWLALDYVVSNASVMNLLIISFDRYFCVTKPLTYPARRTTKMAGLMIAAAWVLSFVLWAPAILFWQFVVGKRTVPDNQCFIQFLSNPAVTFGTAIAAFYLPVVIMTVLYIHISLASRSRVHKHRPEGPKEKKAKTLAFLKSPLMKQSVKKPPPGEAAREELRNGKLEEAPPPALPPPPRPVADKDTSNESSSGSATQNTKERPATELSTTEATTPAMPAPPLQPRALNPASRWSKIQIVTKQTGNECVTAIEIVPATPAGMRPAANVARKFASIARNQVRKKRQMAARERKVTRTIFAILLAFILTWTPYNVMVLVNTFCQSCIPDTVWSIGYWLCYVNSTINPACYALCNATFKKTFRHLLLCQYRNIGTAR
# Chain of Alpha-2C adrenergic receptor (Homo sapiens) (P18825 whole entry): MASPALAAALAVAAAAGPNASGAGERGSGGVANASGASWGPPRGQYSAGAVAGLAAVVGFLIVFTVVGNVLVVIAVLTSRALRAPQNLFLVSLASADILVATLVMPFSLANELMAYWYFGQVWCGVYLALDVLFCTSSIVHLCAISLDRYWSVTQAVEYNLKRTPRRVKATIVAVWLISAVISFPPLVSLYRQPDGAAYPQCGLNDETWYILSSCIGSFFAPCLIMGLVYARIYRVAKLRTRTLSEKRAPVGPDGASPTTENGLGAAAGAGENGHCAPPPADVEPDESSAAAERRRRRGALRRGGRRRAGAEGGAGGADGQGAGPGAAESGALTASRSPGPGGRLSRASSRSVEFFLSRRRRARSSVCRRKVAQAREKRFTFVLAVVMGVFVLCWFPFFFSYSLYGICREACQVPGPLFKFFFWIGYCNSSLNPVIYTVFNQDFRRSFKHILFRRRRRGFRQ
# Chain of D(1B) dopamine receptor (P21918 whole entry): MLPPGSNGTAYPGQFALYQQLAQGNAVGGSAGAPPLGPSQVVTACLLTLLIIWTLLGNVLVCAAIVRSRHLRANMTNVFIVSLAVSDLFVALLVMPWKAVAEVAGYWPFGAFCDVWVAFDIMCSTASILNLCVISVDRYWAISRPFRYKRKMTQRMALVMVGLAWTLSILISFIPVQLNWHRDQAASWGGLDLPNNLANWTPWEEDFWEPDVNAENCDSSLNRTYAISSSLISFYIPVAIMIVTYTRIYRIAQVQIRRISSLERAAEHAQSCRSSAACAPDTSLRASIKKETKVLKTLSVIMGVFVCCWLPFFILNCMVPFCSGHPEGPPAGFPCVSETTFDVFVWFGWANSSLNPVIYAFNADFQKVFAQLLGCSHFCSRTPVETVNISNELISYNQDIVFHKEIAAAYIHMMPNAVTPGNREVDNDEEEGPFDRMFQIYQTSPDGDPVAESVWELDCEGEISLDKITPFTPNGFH
# Chain of Muscarinic acetylcholine receptor M2 (Homo sapiens) (P08172 whole entry): as the sequence (P08172 whole entry) above
# Chain of Muscarinic acetylcholine receptor M1 (Homo sapiens) (P11229 whole entry): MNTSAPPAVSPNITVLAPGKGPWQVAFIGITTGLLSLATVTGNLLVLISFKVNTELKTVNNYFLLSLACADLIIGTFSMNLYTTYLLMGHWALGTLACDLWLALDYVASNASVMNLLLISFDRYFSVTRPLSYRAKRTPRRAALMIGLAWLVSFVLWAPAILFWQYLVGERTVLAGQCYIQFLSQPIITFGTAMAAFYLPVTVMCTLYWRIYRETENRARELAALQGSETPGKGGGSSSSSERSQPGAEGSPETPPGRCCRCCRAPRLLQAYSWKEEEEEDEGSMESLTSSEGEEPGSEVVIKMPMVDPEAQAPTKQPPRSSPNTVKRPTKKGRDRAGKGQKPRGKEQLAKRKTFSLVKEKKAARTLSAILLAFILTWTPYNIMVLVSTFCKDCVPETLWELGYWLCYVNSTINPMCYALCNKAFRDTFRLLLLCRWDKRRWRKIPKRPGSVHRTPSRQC
# Chain of Sodium-dependent dopamine transporter (Q01959 whole entry): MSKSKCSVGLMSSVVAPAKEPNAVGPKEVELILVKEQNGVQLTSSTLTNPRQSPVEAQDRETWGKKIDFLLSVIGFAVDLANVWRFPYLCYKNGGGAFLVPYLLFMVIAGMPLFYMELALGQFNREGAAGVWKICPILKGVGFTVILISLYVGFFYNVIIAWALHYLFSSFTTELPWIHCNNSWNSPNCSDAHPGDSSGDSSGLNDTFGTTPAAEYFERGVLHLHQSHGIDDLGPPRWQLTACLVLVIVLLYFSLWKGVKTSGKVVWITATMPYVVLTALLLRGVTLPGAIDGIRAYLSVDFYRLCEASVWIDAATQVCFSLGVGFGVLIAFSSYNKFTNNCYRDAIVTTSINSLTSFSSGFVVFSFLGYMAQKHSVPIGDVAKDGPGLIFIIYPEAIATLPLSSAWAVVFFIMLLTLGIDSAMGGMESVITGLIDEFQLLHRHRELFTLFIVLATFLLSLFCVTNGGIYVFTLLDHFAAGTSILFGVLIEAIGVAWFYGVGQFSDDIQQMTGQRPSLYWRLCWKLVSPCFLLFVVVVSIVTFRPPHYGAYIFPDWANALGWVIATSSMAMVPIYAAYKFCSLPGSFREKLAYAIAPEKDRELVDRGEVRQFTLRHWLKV
# Chain of D(3) dopamine receptor (P35462 whole entry): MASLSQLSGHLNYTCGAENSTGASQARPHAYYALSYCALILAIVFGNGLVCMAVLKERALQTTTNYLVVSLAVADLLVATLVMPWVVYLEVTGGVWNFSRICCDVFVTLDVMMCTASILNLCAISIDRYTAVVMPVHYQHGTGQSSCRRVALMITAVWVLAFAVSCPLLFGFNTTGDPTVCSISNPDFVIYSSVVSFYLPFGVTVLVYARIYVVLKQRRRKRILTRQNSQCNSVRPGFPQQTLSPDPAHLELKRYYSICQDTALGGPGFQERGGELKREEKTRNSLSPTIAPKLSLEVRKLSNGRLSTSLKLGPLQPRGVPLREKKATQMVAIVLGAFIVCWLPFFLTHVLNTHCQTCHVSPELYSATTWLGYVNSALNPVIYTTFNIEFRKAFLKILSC
# Chain of Alpha-2B adrenergic receptor (P18089 whole entry): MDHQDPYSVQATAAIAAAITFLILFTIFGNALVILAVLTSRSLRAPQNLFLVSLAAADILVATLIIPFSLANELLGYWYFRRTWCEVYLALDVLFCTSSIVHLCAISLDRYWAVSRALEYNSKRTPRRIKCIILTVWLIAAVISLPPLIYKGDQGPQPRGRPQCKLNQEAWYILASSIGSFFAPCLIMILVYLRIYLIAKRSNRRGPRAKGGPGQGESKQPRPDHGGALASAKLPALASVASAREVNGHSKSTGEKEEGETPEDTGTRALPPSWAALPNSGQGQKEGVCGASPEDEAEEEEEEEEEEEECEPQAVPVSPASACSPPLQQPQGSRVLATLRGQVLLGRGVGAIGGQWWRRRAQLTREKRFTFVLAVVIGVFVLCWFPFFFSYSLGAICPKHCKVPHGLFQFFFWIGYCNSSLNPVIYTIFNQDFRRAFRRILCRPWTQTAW
SMILES,Ki (D(1B) dopamine receptor),inhibition [1],inhibition [2],inhibition [3],Ki [4],inhibition [5],Ki [6],Ki [7],Ki (D(3) dopamine receptor),Ki [8],Ki [9]
C1CCC(CN2CCCC2)CC1,> 10 µM,< 50%,< 50%,< 50%,–,–,–,–,–,–,–
C1CCC(CN2C3CCC2CC3)CC1,–,–,–,–,4.74 µM,< 50%,–,–,–,–,–
C1CC2CCC1N2CC12C3C4C5C3C1C5C42 (configuration not stated),–,–,–,–,0.696 µM,–,> 10 µM,4.24 µM,> 10 µM,> 10 µM,0.661 µM
